What was measured:
[1] = biological target: T1, Orexin type 1 (OX1R) receptor (Homo sapiens, UniProt O43613); experiment: In vitro orexin antagonism assay: intracellular calcium measurement (FLIPR), orexin-A 3 nM as agonist; format: cell-based; conditions: for inhibition at 1 µM: read-out: OX1R, % Inh. @ 1 uM; for IC50: first value of IC50/Kb cell; for Kb: second value of IC50/Kb cell
T1 construct: expressed in transfected cells; host or cells: CHO cells (G418 selection)
T1 sequence (O43613 1-425): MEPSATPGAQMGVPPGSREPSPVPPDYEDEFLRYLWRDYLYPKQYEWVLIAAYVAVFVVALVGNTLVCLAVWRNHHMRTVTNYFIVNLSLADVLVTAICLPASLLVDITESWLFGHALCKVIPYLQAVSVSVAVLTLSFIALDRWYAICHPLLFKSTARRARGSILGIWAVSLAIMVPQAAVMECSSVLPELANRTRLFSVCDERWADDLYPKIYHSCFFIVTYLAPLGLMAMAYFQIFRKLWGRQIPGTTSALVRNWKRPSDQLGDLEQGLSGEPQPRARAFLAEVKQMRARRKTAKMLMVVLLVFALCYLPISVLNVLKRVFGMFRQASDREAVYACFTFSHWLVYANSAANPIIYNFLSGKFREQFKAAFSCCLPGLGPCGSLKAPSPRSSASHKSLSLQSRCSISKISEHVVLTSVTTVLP
Protocol: (§1) In Vitro Orexin Antagonism Measurement Assay: Intracellular Calcium Measurements:
(§2) Chinese hamster ovary (CHO) cells expressing the human […] and the human orexin-2 receptor, respectively, are grown in culture medium (Ham F-12 with L-Glutamine) containing 300 μg/mL G418, 100 U/mL penicillin, 100 μg/mL streptomycin and 10% heat inactivated fetal calf serum (FCS). The cells are seeded at 20,000 cells/well into 384-well black clear bottom sterile plates (Greiner). The seeded plates are incubated overnight at 37° C. in 5% 002. Human orexin-A as an agonist is prepared as 1 mM stock solution in MeOH: water (1:1), diluted in HBSS containing 0.1% bovine serum albumin (BSA), NaHCO3: 0.375 g/L and 20 mM HEPES for use in the assay at a final concentration of 3 nM.
(§3) Antagonists are prepared as 10 mM stock solution in DMSO, then diluted in 384-well plates using DMSO followed by a transfer of the dilutions into in HBSS containing 0.1% bovine serum albumin (BSA), NaHCO3: 0.375 g/L and 20 mM HEPES. On the day of the assay, 50 μL of staining buffer (HBSS containing 1% FCS, 20 mM HEPES, NaHCO3: 0.375 g/L, 5 mM probenecid (Sigma) and 3 μM of the fluorescent calcium indicator fluo-4 AM (1 mM stock solution in DMSO, containing 10% pluronic) is added to each well. The 384-well cell-plates are incubated for 50 min at 37° C. in 5% CO2 followed by equilibration at RT for 30 min before measurement.
(§4) Within the Fluorescent Imaging Plate Reader (FLIPR Tetra, Molecular Devices), antagonists are added to the plate in a volume of 10 μL/well, incubated for 120 min and finally 10 μL/well of agonist is added. Fluorescence is measured for each well at 1 second intervals, and the height of each fluorescence peak is compared to the height of the fluorescence peak induced by 3 nM orexin-A with vehicle in place of antagonist. The IC50 value (the concentration of compound needed to inhibit 50% of the agonistic response) is determined and may be normalized using the obtained IC50 value of an on-plate reference compound. Optimized conditions were achieved by adjustment of pipetting speed and cell splitting regime. The calculated IC50values may fluctuate depending on the daily cellular assay performance. Fluctuations of this kind are known to those skilled in the art.

[2] = biological target: T2, human orexin-2 receptor (OX2R) (Homo sapiens, UniProt O43614); experiment: as above; format: cell-based; conditions: for inhibition at 1 µM: read-out: OX2R, % Inh. @ 1 uM
T2 construct: expressed in transfected cells; host or cells: CHO cells (G418 selection)
T2 sequence (O43614 1-444): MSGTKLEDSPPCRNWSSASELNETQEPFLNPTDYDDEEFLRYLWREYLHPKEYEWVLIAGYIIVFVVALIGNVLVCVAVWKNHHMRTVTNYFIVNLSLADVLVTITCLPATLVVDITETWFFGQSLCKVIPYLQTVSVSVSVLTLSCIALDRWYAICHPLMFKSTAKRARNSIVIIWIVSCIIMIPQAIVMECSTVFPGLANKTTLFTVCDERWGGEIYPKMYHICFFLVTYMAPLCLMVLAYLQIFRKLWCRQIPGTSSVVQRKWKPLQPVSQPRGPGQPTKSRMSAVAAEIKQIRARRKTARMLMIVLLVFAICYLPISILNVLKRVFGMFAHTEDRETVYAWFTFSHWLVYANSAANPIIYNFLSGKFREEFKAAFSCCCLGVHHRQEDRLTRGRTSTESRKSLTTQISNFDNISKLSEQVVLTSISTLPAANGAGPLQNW
Protocol: Antagonistic activities on both orexin receptors have been measured for each example compound using the following procedure:
as §1, §2, §3
as §4, with “art. In the case where IC50values have been determined several times for the same compound, the geometric mean has been given.” for “art.”

Structure (SMILES) | inhibition at 1 µM [1] [%] | inhibition at 1 µM [2] [%] | IC50 [1] [µM] | Kb [1] [µM] | OX1R, % Inh. @ 1 uM ([1]; @ 1 uM) [%] | OX2R, % Inh. @ 1 uM ([2]; @ 1 uM) [%]
O=C(c1c(-c2ccccc2F)nn2c1COCC2)N1[C@H](Cn2ccc(-c3ccc(F)cn3)n2)C[C@@H]2C[C@@H]21 [Example 108] | 23 | 17 |  |  |  | 
O=C(c1c(-c2ccccc2)nc2ccc(F)cn12)N1[C@H](Cn2ccc(-c3ccc(F)cn3)n2)C[C@@H]2C[C@@H]21 [Example 109] | 45 | 32 |  |  |  | 
O=C(c1c(-c2ccccc2)nc2cc(C(F)(F)F)ccn12)N1[C@H](Cn2ccc(-c3ccc(F)cn3)n2)C[C@@H]2C[C@@H]21 [Example 110] | 69 | 42 | 0.28 | 0.06 |  | 
O=C(c1c(-c2ccccc2)nn2c1COCC2)N1CCOC[C@H]1COc1ccc(C(F)(F)F)cn1 [Example 113] | 12 | 8 |  |  |  | 
O=C(c1c(-c2ccccc2)nn2c1COCC2)N1CCC[C@H]1Cc1nc(-c2ccc(F)cn2)no1 [Example 116] | 10 | 19 |  |  |  | 
O=C(c1c(-c2ccccc2)nc2ccc(F)cn12)N1CCC[C@H]1Cc1nc(-c2ccc(F)cn2)no1 [Example 121] | 44 | 45 |  |  |  | 
O=C(c1nc2ccccn2c1-c1ccccc1)N1CCC[C@H]1Cn1ccc(-c2ccc(F)cn2)n1 [Example 123] |  |  |  |  | 100 | 42
O=C(c1nn2c(c1-c1ccccc1)COCC2)N1C2CCC1(COc1ccc(C(F)(F)F)cn1)CC2 [Example 159] | 86 | 15 | 0.048 | 0.01 |  | 
O=C(c1nc2ccccn2c1-c1ccccc1)N1C2CCC1(COc1ccc(C(F)(F)F)cn1)CC2 [Example 160] | 98 | 2 | 0.024 | 0.005 |  | 
O=C(c1c(-c2ncccn2)nn2ccccc12)N1C2CCC1(COc1ccc(C(F)(F)F)cn1)CC2 [Example 161] | 44 | 6 |  |  |  | 
O=C(c1nn2ccccc2c1-c1ccccn1)N1CCC[C@H]1Cc1nc(-c2ccccn2)no1 [Example 175] | 93 | 29 | 0.011 | 0.002 |  | 
O=C(c1nn2ccccc2c1-c1ccccn1)N1CCC[C@H]1Cc1nc(-c2ccc(F)cn2)no1 [Example 176] | 93 | 40 | 0.012 | 0.002 |  | 
O=C(c1nc2ccccn2c1-c1ccccn1)N1CCC[C@H]1Cn1ccc(-c2ccccn2)n1 [Example 180] | 97 | 27 | 0.017 | 0.004 |  | 
O=C(c1nc2n(c1-c1ccccn1)CCOC2)N1CCC[C@H]1COc1ccc(C(F)(F)F)cn1 [Example 184] | 42 | 10 |  |  |  | 

Now from value to compound, other results behind:

inhibition at 1 µM [1] [%] | inhibition at 1 µM [2] [%] | IC50 [1] [µM] | Kb [1] [µM] | Structure (SMILES) | OX1R, % Inh. @ 1 uM ([1]; @ 1 uM) [%] | OX2R, % Inh. @ 1 uM ([2]; @ 1 uM) [%]
14 | 6 |  |  | O=C(c1c(-c2ccccc2)nn2ccccc12)N1CCOC[C@H]1COc1ccc(C(F)(F)F)cn1 [Example 114] |  | 
100 | 36 | 0.005 | 0.001 | O=C(c1nc2ccccn2c1-c1ccccc1)N1CCC[C@H]1COc1ccc(C(F)(F)F)cn1 [Example 124] |  | 
100 | 42 | 0.006 | 0.001 | O=C(c1nn2c(c1-c1ccccc1)OCCC2)N1CCC[C@H]1COc1ccc(C(F)(F)F)cn1 [Example 142] |  | 
36 | 0 |  |  | C[C@@]1(COc2cnc(C(F)(F)F)cn2)CCCN1C(=O)c1nn2c(c1-c1ccccc1)COCC2 [Example 162] |  | 
75 | 11 | 0.771 | 0.162 | C[C@@]1(COc2cnc(C(F)(F)F)cn2)CCCN1C(=O)c1nc2ccccn2c1-c1ccccc1 [Example 163] |  | 
84 | 20 | 0.305 | 0.064 | C[C@@]1(COc2cnc(C(F)(F)F)cn2)CCCN1C(=O)c1c(-c2ccccn2)nn2ccccc12 [Example 164] |  | 
50 | 6 |  |  | C[C@@]1(COc2cnc(C(F)(F)F)cn2)CCCN1C(=O)c1nn2c(c1-c1ccccc1)OCCC2 [Example 165] |  | 
53 | 10 |  |  | C[C@@]1(COc2cnc(C(F)(F)F)cn2)CCCN1C(=O)c1c(-c2ncccn2)nn2ccccc12 [Example 166] |  | 
82 | 20 | 0.326 | 0.069 | C[C@@]1(COc2cnc(C(F)(F)F)cn2)CCCN1C(=O)c1nn2cccnc2c1-c1ccccc1 [Example 167] |  | 
72 | 28 | 0.475 | 0.1 | C[C@@]1(COc2cnc(C(F)(F)F)cn2)CCCN1C(=O)c1c(-c2ccccc2)nn2cccnc12 [Example 168] |  | 
2 | 15 |  |  | C[C@@]1(COc2cnc(C(F)(F)F)cn2)CCCN1C(=O)c1c(-c2ccccc2)nn2c1COCC2 [Example 169] |  | 
85 | 23 | 0.46 | 0.097 | C[C@@]1(COc2cnc(C(F)(F)F)cn2)CCCN1C(=O)c1nn2ccccc2c1-c1ccccc1 [Example 170] |  | 
99 | 12 | 0.008 | 0.002 | O=C(c1nc2ccccn2c1-c1ccccn1)N1CCC[C@H]1COc1ccc(C(F)(F)F)cn1 [Example 179] |  | 
96 | 59 | 0.019 | 0.004 | O=C(c1nn2ccccc2c1-c1ccccn1)N1CCC[C@H]1Cn1ccc(-c2ccc(F)cn2)n1 [Example 182] |  | 
94 | 61 | 0.016 | 0.003 | O=C(c1nn2cccnc2c1-c1ccccn1)N1CCC[C@H]1Cn1ccc(-c2ccccn2)n1 [Example 185] |  | 
82 | 23 | 0.029 | 0.006 | O=C(c1nn2cccnc2c1-c1ccccn1)N1CCC[C@H]1Cc1nc(-c2ccccn2)no1 [Example 188] |  | 
94 | 43 | 0.018 | 0.004 | O=C(c1nn2cccnc2c1-c1ccccn1)N1CCC[C@H]1Cc1nc(-c2ccc(F)cn2)no1 [Example 189] |  | 
